Test: Milk production (as is basis) in sorbitol feeding trials
Format: in vivo, Holstein cows
Procedure: Each cow of each of the six different trials (Control Trial #1, Control Trial #2, Pre-Partum Trial #1, Pre-Partum Trial #2, Pre/Post Trial #1, and Pre/Post Trial #2) was milked three times daily and the weight of produced milk by each cow was recorded at each milking. The milk from each cow was sampled once per week (⅓ of the sample volume from each of the three milkings occurring on the weekly milk sampling day) and was analyzed for true protein, total fat, lactose, and total solids, as detailed in the property determination and characterization techniques presented above. Additionally, samples of blood were periodically obtained from each cow during the four trials (Control Trial 2, Pre-Partum Trial #2, Pre/Post Trial #1, and Pre/Post Trial #2) encompassed in Example Two and were analyzed for non-esterified fatty acid (NEFA) content as detailed in the property determination and characterization techniques presented above. No NEFA analysis was conducted on the cows employed in Control Trial #1 or Pre-Partum Trial #1 that are the subject of Example One. Example One includes Control Trial #1 and Pre-Partum Trial #1. Both primiparious cows and multiparious cows were included in Control Trial #1 and Pre-Partum Trial #1. Five primiparious cows and fifteen multiparious cows were included in Control Trial #1; likewise, five primiparious cows and fifteen multiparious cows were included in Pre-Partum Trial #1. All cows included in Control Trial #1 and Pre-Partum Trial #1 were Holsteins. Example Two includes Control Trial #2, Pre-Partum Trial #2, Pre/Post Trial #1, and Pre/Post Trial #2. Only multiparious, Holstein cows were included in Control Trial #2, Pre-Partum Trial #1, Pre/Post Trial #1, and Pre/Post Trial #2. Eighteen multiparious cows were included in both Control Trial #2 and Pre-Partum Trial #2, while sixteen multiparious cows were included in Pre/Post Trial #1 and seventeen multiparious cows were included in Pre/Post Trial #2.

OC[C@@H](O)[C@@H](O)[C@H](O)[C@@H](O)CO [sorbitol]
Milk Production (As Is Basis) (Pre-Partum Trial #1 (75/0/0 g/day in wk −3..−1/+1..+4/+5..+8), multiparious cows, weeks +1 through +8): 99.9 lbs/day | Milk Production (As Is Basis) (Pre-Partum Trial #1 (75/0/0 g/day in wk −3..−1/+1..+4/+5..+8), primiparious cows, weeks +1 through +8): 71.7 lbs/day | increase in milk production (Pre-Partum Trial #1 (75 g/day wk −3..−1 only) versus Control Trial #1, multiparious cows, weeks +1 through +8): 9.2% | Milk Production (As Is Basis) (Pre-Partum Trial #2 (75/0/100 g/day in wk −3..−1/+1..+4/+5..+8), multiparious cows, week +1): 62.8 lbs/day | Milk Production (As Is Basis) (Pre-Partum Trial #2 (75/0/100 g/day in wk −3..−1/+1..+4/+5..+8), multiparious cows, week +2): 92.6 lbs/day | Milk Production (As Is Basis) (Pre-Partum Trial #2 (75/0/100 g/day in wk −3..−1/+1..+4/+5..+8), multiparious cows, week +3): 102 lbs/day | Milk Production (As Is Basis) (Pre-Partum Trial #2 (75/0/100 g/day in wk −3..−1/+1..+4/+5..+8), multiparious cows, week +4): 111 lbs/day | Milk Production (As Is Basis) (Pre-Partum Trial #2 (75/0/100 g/day in wk −3..−1/+1..+4/+5..+8), multiparious cows, week +5): 115 lbs/day | Milk Production (As Is Basis) (Pre-Partum Trial #2 (75/0/100 g/day in wk −3..−1/+1..+4/+5..+8), multiparious cows, week +6): 115 lbs/day | Milk Production (As Is Basis) (Pre-Partum Trial #2 (75/0/100 g/day in wk −3..−1/+1..+4/+5..+8), multiparious cows, week +7): 115 lbs/day | Milk Production (As Is Basis) (Pre-Partum Trial #2 (75/0/100 g/day in wk −3..−1/+1..+4/+5..+8), multiparious cows, week +8): 111 lbs/day | Milk Production (As Is Basis) (Pre-Partum Trial #2 (75/0/100 g/day in wk −3..−1/+1..+4/+5..+8), multiparious cows, weeks +1 through +4): 92.0 lbs/day | Milk Production (As Is Basis) (Pre-Partum Trial #2 (75/0/100 g/day in wk −3..−1/+1..+4/+5..+8), multiparious cows, weeks +1 through +8): 103 lbs/day | Milk Production (As Is Basis) (Pre-Partum Trial #2 (75/0/100 g/day in wk −3..−1/+1..+4/+5..+8), multiparious cows, weeks +5 through +8): 115 lbs/day | Milk Production (As Is Basis) (Pre/Post Trial #1 (150/125/100 g/day in wk −3..−1/+1..+4/+5..+8), multiparious cows, week +1): 67.9 lbs/day | Milk Production (As Is Basis) (Pre/Post Trial #1 (150/125/100 g/day in wk −3..−1/+1..+4/+5..+8), multiparious cows, week +1, two-trial comparison with Control Trial #2 (Table 23)): 68.4 lbs/day | Milk Production (As Is Basis) (Pre/Post Trial #1 (150/125/100 g/day in wk −3..−1/+1..+4/+5..+8), multiparious cows, week +2): 93.8 lbs/day | Milk Production (As Is Basis) (Pre/Post Trial #1 (150/125/100 g/day in wk −3..−1/+1..+4/+5..+8), multiparious cows, week +2, two-trial comparison with Control Trial #2 (Table 23)): 93.9 lbs/day | Milk Production (As Is Basis) (Pre/Post Trial #1 (150/125/100 g/day in wk −3..−1/+1..+4/+5..+8), multiparious cows, week +3): 104 lbs/day | Milk Production (As Is Basis) (Pre/Post Trial #1 (150/125/100 g/day in wk −3..−1/+1..+4/+5..+8), multiparious cows, week +3, two-trial comparison with Control Trial #2 (Table 23)): 104 lbs/day | Milk Production (As Is Basis) (Pre/Post Trial #1 (150/125/100 g/day in wk −3..−1/+1..+4/+5..+8), multiparious cows, week +4): 109 lbs/day | Milk Production (As Is Basis) (Pre/Post Trial #1 (150/125/100 g/day in wk −3..−1/+1..+4/+5..+8), multiparious cows, week +4, two-trial comparison with Control Trial #2 (Table 23)): 109 lbs/day | Milk Production (As Is Basis) (Pre/Post Trial #1 (150/125/100 g/day in wk −3..−1/+1..+4/+5..+8), multiparious cows, week +5): 113 lbs/day | Milk Production (As Is Basis) (Pre/Post Trial #1 (150/125/100 g/day in wk −3..−1/+1..+4/+5..+8), multiparious cows, week +5, two-trial comparison with Control Trial #2 (Table 23)): 113 lbs/day | Milk Production (As Is Basis) (Pre/Post Trial #1 (150/125/100 g/day in wk −3..−1/+1..+4/+5..+8), multiparious cows, week +6): 113 lbs/day | Milk Production (As Is Basis) (Pre/Post Trial #1 (150/125/100 g/day in wk −3..−1/+1..+4/+5..+8), multiparious cows, week +6, two-trial comparison with Control Trial #2 (Table 23)): 113 lbs/day | Milk Production (As Is Basis) (Pre/Post Trial #1 (150/125/100 g/day in wk −3..−1/+1..+4/+5..+8), multiparious cows, week +7): 112 lbs/day | Milk Production (As Is Basis) (Pre/Post Trial #1 (150/125/100 g/day in wk −3..−1/+1..+4/+5..+8), multiparious cows, week +7, two-trial comparison with Control Trial #2 (Table 23)): 112 lbs/day | Milk Production (As Is Basis) (Pre/Post Trial #1 (150/125/100 g/day in wk −3..−1/+1..+4/+5..+8), multiparious cows, week +8): 114 lbs/day | Milk Production (As Is Basis) (Pre/Post Trial #1 (150/125/100 g/day in wk −3..−1/+1..+4/+5..+8), multiparious cows, week +8, two-trial comparison with Control Trial #2 (Table 23)): 115 lbs/day | Milk Production (As Is Basis) (Pre/Post Trial #1 (150/125/100 g/day in wk −3..−1/+1..+4/+5..+8), multiparious cows, weeks +1 through +4): 93.6 lbs/day | Milk Production (As Is Basis) (Pre/Post Trial #1 (150/125/100 g/day in wk −3..−1/+1..+4/+5..+8), multiparious cows, weeks +1 through +4, two-trial comparison with Control Trial #2 (Table 23)): 94.1 lbs/day | Milk Production (As Is Basis) (Pre/Post Trial #1 (150/125/100 g/day in wk −3..−1/+1..+4/+5..+8), multiparious cows, weeks +1 through +8): 103 lbs/day | Milk Production (As Is Basis) (Pre/Post Trial #1 (150/125/100 g/day in wk −3..−1/+1..+4/+5..+8), multiparious cows, weeks +1 through +8, two-trial comparison with Control Trial #2 (Table 23)): 104 lbs/day | Milk Production (As Is Basis) (Pre/Post Trial #1 (150/125/100 g/day in wk −3..−1/+1..+4/+5..+8), multiparious cows, weeks +5 through +8): 113 lbs/day | Milk Production (As Is Basis) (Pre/Post Trial #1 (150/125/100 g/day in wk −3..−1/+1..+4/+5..+8), multiparious cows, weeks +5 through +8, two-trial comparison with Control Trial #2 (Table 23)): 113 lbs/day | Milk Production (As Is Basis) (Pre/Post Trial #2 (75/75/100 g/day in wk −3..−1/+1..+4/+5..+8), multiparious cows, week +1): 66.4 lbs/day | Milk Production (As Is Basis) (Pre/Post Trial #2 (75/75/100 g/day in wk −3..−1/+1..+4/+5..+8), multiparious cows, week +2): 92.8 lbs/day | Milk Production (As Is Basis) (Pre/Post Trial #2 (75/75/100 g/day in wk −3..−1/+1..+4/+5..+8), multiparious cows, week +3): 102 lbs/day | Milk Production (As Is Basis) (Pre/Post Trial #2 (75/75/100 g/day in wk −3..−1/+1..+4/+5..+8), multiparious cows, week +4): 108 lbs/day | Milk Production (As Is Basis) (Pre/Post Trial #2 (75/75/100 g/day in wk −3..−1/+1..+4/+5..+8), multiparious cows, week +5): 113 lbs/day | Milk Production (As Is Basis) (Pre/Post Trial #2 (75/75/100 g/day in wk −3..−1/+1..+4/+5..+8), multiparious cows, week +6): 113 lbs/day | Milk Production (As Is Basis) (Pre/Post Trial #2 (75/75/100 g/day in wk −3..−1/+1..+4/+5..+8), multiparious cows, week +7): 110 lbs/day | Milk Production (As Is Basis) (Pre/Post Trial #2 (75/75/100 g/day in wk −3..−1/+1..+4/+5..+8), multiparious cows, week +8): 108 lbs/day | Milk Production (As Is Basis) (Pre/Post Trial #2 (75/75/100 g/day in wk −3..−1/+1..+4/+5..+8), multiparious cows, weeks +1 through +4): 91.7 lbs/day | Milk Production (As Is Basis) (Pre/Post Trial #2 (75/75/100 g/day in wk −3..−1/+1..+4/+5..+8), multiparious cows, weeks +1 through +8): 102 lbs/day | Milk Production (As Is Basis) (Pre/Post Trial #2 (75/75/100 g/day in wk −3..−1/+1..+4/+5..+8), multiparious cows, weeks +5 through +8): 111 lbs/day
